Data as given in US9884063B2, “Amido-substituted azole compounds” (Bayer Pharma Aktiengesellschaft, priority 2014, dated 2018).

These compounds were tested against T1, TNKS1 (Homo sapiens, UniProt O95271) (assay: Modified TNKS1 Assay 2 (auto-parsylation, [3H]-NAD+ SPA)). Conditions: 6 nM TNKS1, 96 well.
T1 sequence (O95271 1-1327): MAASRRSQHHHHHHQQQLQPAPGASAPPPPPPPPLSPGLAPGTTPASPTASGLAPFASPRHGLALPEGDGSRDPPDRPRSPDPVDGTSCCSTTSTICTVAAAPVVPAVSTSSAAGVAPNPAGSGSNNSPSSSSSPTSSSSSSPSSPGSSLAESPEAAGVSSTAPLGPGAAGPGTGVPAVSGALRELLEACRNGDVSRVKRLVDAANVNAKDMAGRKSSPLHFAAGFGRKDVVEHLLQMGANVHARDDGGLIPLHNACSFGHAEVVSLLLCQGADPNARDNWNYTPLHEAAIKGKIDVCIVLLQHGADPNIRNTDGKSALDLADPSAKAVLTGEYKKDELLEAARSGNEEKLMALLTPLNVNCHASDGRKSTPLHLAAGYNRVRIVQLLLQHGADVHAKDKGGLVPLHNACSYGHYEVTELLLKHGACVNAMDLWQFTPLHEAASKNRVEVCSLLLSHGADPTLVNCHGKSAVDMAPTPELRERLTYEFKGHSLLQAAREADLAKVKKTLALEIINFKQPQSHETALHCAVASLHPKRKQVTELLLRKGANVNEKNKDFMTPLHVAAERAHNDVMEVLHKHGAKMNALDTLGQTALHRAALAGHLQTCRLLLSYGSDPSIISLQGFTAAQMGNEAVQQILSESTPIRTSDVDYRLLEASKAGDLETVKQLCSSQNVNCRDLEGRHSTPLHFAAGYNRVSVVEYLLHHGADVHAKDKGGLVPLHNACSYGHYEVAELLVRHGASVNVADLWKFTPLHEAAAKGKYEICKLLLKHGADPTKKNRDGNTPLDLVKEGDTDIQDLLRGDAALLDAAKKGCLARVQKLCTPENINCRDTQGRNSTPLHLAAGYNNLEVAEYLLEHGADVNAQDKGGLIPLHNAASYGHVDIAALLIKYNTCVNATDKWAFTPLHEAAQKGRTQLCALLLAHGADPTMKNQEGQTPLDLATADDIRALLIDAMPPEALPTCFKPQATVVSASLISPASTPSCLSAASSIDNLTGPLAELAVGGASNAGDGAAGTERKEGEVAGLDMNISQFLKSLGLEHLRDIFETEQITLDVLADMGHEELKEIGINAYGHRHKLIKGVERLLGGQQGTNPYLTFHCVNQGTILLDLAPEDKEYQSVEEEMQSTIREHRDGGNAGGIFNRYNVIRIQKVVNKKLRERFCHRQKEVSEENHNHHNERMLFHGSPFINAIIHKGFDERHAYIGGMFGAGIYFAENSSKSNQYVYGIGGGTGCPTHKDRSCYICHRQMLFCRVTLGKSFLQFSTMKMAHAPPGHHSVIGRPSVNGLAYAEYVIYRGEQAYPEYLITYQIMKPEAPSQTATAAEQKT
Assay type: biochemical
Experimental: The potency of selected compounds according to the invention was assessed applying an modified in vitro inhibition assay. Here, the TNKS1 catalyzed NAD^+-dependent ribosylation of the enzyme itself (auto-parsylation) was detected using [^3H]-NAD^+ as substrate and applying the scintillation proximity assay (SPA) method to detect tritium-labeled, parsylated TNKS1. The intensity of the readout signal is proportional to the incorporated [^3H]-NAD^+. Inhibition of TNKS1 leads to a decreased incorporation of [^3H]-NAD^+ and consequently to a lower readout signal intensity. The concentration of a test compound which inhibits the enzyme activity by 50% (corresponds to half of the normed readout signal intensity) is reported as IC50.
The assay was conducted in a 96 well MTP format with the identical TNKS1 enzyme sample and NAD^+ sample as in the histone ribosylation assay with the following modifications: TNKS1 enzyme sample was diluted with a modified assay buffer (50 mM MES pH 7.0, 1 mM DTT, 0.01% Triton X-100) to a final concentration of 6 nM TNKS1 and 10×NAD^+ solution was diluted with the modified assay buffer (s. above) to a final 0.445×NAD^+ solution doped with 100 Bq/ul [^3H]-NAD^+[Catalog #NET443H050UC, Perkin Elmer, Waltham, Mass., USA]. Substrate solution (10 ul) was incubated with different test compound concentrations (2.5 ul in 10% DMSO in modified assay buffer) or control (2.5 ul 10% DMSO in modified assay buffer only) and enzyme (10 ul) over night at room temperature. Incorporated tritium was measured after addition of 50 ul SPA beads (1 mg/ml) [Catalog #RPNQ0095 20 mg/ml, Perkin Elmer, Waltham, Mass., USA; diluted 1:10 with Dulbecco's phosphate buffered saline, PBS Catalog #D8537, Sigma-Aldrich, Steinheim, Germany] and detection of the photon emission with a beta count plate reader [Wallac MicroBeta®, Perkin Elmer, Waltham, Mass., USA].

IC50	SMILES
0.15 µM	CNC(=O)c1nc[nH]c1C(=O)Nc1ccc(NC(=O)c2ccc(Cl)cc2Cl)cc1 [Example 9, N^5-{4-[(2,4-dichlorobenzoyl)amino]phenyl}-N^4-methyl-1H-imidazole-4,5-dicarboxamide]
0.63 µM	CNC(=O)c1nc[nH]c1C(=O)Nc1ccc(NC(=O)c2ccccc2Cl)cc1 [Example 27, N^5-{4-[(2-chlorobenzoyl)amino]phenyl}-N^4-methyl-1H-imidazole-4,5-dicarboxamide]
1.3 µM	CC(C)(C)CNC(=O)c1[nH]cnc1C(=O)Nc1ccc(NC(=O)c2ccccc2Cl)cc1 [Example 148, N^4-{4-[(2-chlorobenzoyl)amino]phenyl}-N^5-(2,2-dimethylpropyl)-1H-imidazole-4,5-dicarboxamide]
0.05 µM	O=C(Nc1ccc(NC(=O)c2[nH]cnc2C(=O)NCC(F)(F)F)cc1)c1ccc(F)cc1Cl [Example 30, N^4-{4-[(2-chloro-4-fluorobenzoyl)amino]phenyl}-N^5-(2,2,2-trifluoroethyl)-1H-imidazole-4,5-dicarboxamide]
0.08 µM	CNC(=O)c1nc[nH]c1C(=O)Nc1ccc(NC(=O)c2ccc(OCCN(C)C)cc2Cl)cc1 [Example 25, N^5-[4-({2-chloro-4-[2-(dimethylamino)ethoxy]benzoyl}amino)phenyl]-N^4-methyl-1H-imidazole-4,5-dicarboxamide]
0.004 µM	O=C(Nc1ccc(NC(=O)c2nc[nH]c2C(=O)NCCN2CCCC(F)C2)cc1)c1ccc(F)cc1Cl (stereo not drawn) [Example 226, N^4-{4-[(2-chloro-4-fluorobenzoyl)amino]phenyl}-N^5-[2-(3-fluoropiperidin-1-yl)ethyl]-1H-imidazole-4,5-dicarboxamide]
0.007 µM	O=C(Nc1ccc(NC(=O)c2nc[nH]c2C(=O)NCCN2CCCCC2)cc1)c1ccc(F)cc1Br [Example 216, N^4-{4-[(2-bromo-4-fluorobenzoyl)amino]phenyl}-N^5-[2-(piperidin-1-yl)ethyl]-1H-imidazole-4,5-dicarboxamide]
> 10 µM	CNC(=O)c1nc[nH]c1C(=O)Nc1ccc(NC(=O)c2ccccc2O)cc1 [Example 239, N^5-{4-[(2-hydroxybenzoyl)amino]phenyl}-N^4-methyl-1H-imidazole-4,5-dicarboxamide]
0.008 µM	CNC(=O)c1nc[nH]c1C(=O)Nc1ccc(NC(=O)c2cc(OC)c(OC)cc2Cl)cc1 [Example 240, N^5-{4-[(2-chloro-4,5-dimethoxybenzoyl)amino]phenyl}-N^4-methyl-1H-imidazole-4,5-dicarboxamide]
0.29 µM	CC(C)NC(=O)c1nc[nH]c1C(=O)Nc1ccc(NC(=O)c2ccc(F)cc2Cl)cc1 [Example 10, N^5-{4-[(2-chloro-4-fluorobenzoyl)amino]phenyl}-N^4-isopropyl-1H-imidazole-4,5-dicarboxamide]
0.11 µM	CC(C)(CN1CCOCC1)NC(=O)c1[nH]cnc1C(=O)Nc1ccc(NC(=O)c2ccc(F)cc2Cl)cc1 [Example 207, N^4-{4-[(2-chloro-4-fluorobenzoyl)amino]phenyl}-N^5-[2-methyl-1-(morpholin-4-yl)propan-2-yl]-1H-imidazole-4,5-dicarboxamide]
0.01 µM	CN(C)CCNC(=O)c1[nH]cnc1C(=O)Nc1ccc(NC(=O)c2ccc(F)cc2Br)cc1 [Example 217, N^4-{4-[(2-bromo-4-fluorobenzoyl)amino]phenyl}-N^5-[2-(dimethylamino)ethyl]-1H-imidazole-4,5-dicarboxamide]
0.2 µM	CC(C)(CN1CCCCC1)NC(=O)c1[nH]cnc1C(=O)Nc1ccc(NC(=O)c2ccccc2Cl)cc1 [Example 171, N^4-{4-[(2-chlorobenzoyl)amino]phenyl}-N^5-[2-methyl-1-(piperidin-1-yl)propan-2-yl]-1H-imidazole-4,5-dicarboxamide]
0.08 µM	CNC(=O)c1nc[nH]c1C(=O)Nc1ccc(NC(=O)c2ccc(N(C)C)cc2Cl)cc1 [Example 4, N^5-(4-{[2-chloro-4-(dimethylamino)benzoyl]amino}phenyl)-N^4-methyl-1H-imidazole-4,5-dicarboxamide]
0.07 µM	O=C(Nc1ccc(NC(=O)c2ocnc2C(=O)NCCN2CCC(F)(F)CC2)cc1)c1ccc(F)cc1Cl [Example 218, N^5-{4-[(2-chloro-4-fluorobenzoyl)amino]phenyl}-N^4-[2-(4,4-difluoropiperidin-1-yl)ethyl]-1,3-oxazole-4,5-dicarboxamide]
2.5 µM	CNC(=O)c1nc[nH]c1C(=O)Nc1ccc(NC(=O)c2ccccc2C(F)F)cc1 [Example 241, N^5-(4-{[2-(difluoromethyl)benzoyl]amino}phenyl)-N^4-methyl-1H-imidazole-4,5-dicarboxamide]
0.4 µM	CC(C)(CNC(=O)c1[nH]cnc1C(=O)Nc1ccc(NC(=O)c2ccc(F)cc2)cc1)N1CCCCC1 [Example 209, N^4-{4-[(4-fluorobenzoyl)amino]phenyl}-N^5-[2-methyl-2-(piperidin-1-yl)propyl]-1H-imidazole-4,5-dicarboxamide]
0.24 µM	O=C(Nc1ccc(NC(=O)c2nc[nH]c2C(=O)NCCF)cc1)c1ccccc1Cl [Example 166, N^4-{4-[(2-chlorobenzoyl)amino]phenyl}-N^5-(2-fluoroethyl)-1H-imidazole-4,5-dicarboxamide]
0.003 µM	CC1CCCN(CCNC(=O)c2[nH]cnc2C(=O)Nc2ccc(NC(=O)c3ccc(F)cc3Cl)cc2)C1 (stereo not drawn) [Example 208, N^4-{4-[(2-chloro-4-fluorobenzoyl)amino]phenyl}-N^5-[2-(3-methylpiperidin-1-yl)ethyl]-1H-imidazole-4,5-dicarboxamide]
0.68 µM	CCS(=N)(=O)c1ccc(C(=O)Nc2ccc(NC(=O)c3[nH]cnc3C(=O)NC)cc2)c(Cl)c1 (stereo not drawn) [Example 255, N^5-(4-{[2-chloro-4-(S-ethylsulfonimidoyl)benzoyl]amino}phenyl)-N^4-methyl-1H-imidazole-4,5-dicarboxamide]
0.04 µM	CC1CCN(CCNC(=O)c2[nH]cnc2C(=O)Nc2ccc(NC(=O)c3ccc(F)cc3)cc2)CC1 [Example 164, N^4-{4-[(4-fluorobenzoyl)amino]phenyl}-N^5-[2-(4-methylpiperidin-1-yl)ethyl]-1H-imidazole-4,5-dicarboxamide]
0.03 µM	O=C(Nc1ccc(NC(=O)c2nc[nH]c2C(=O)NCCF)cc1)c1ccc(F)cc1Cl [Example 173, N^4-{4-[(2-chloro-4-fluorobenzoyl)amino]phenyl}-N^5-(2-fluoroethyl)-1H-imidazole-4,5-dicarboxamide]
> 10 µM	CNC(=O)c1nc[nH]c1C(=O)Nc1ccc(NC(=O)c2ccc(F)cc2)cc1 [Example 20, N^5-{4-[(4-fluorobenzoyl)amino]phenyl}-N^4-methyl-1H-imidazole-4,5-dicarboxamide]
0.009 µM	CCS(=N)(=O)c1ccc(C(=O)Nc2ccc(NC(=O)c3[nH]cnc3C(=O)NCCN3CCCCC3)cc2)c(Cl)c1 (stereo not drawn) [Example 256, N^5-(4-{[2-chloro-4-(S-ethylsulfonimidoyl)benzoyl]amino}phenyl)-N^4-[2-(piperidin-1-yl)ethyl]-1H-imidazole-4,5-dicarboxamide]
